# Results reported in US10124012B2, “Method for treatment of hyperglycemia and hyperlipidemia” (priority 2016, dated 2018).
# How the values were obtained:
# SREBP2 = experiment: Liver mRNA by semi-quantitative RT-PCR: SREBP2; format: in vivo, C57BL/6J mice; conditions: HFD-fed mice, oral gavage once daily 4 weeks, AnK 10, 20, 40, Feno 250, Metf 300 mg/kg/day, vs HF group
# From the text: The 4-week old male C57BL/6J mice (total amount n=63) were obtained from the National Laboratory Animal Center (Taipei, Taiwan). After acclimatization for one week, all of the mice were randomly assigned into a control (CON) group and a high-fat diet (HFD) group. […] After HFD feeding for 8 weeks, the HFD group was randomly subdivided into six groups (n=9 per group) receiving different treatments and fed on HFD. […] The HF+AnK1, HF+AnK2, and HF+AnK3 groups are collectively termed AnK-treated HFD groups in the following examples. The CON mice were administered vehicle. All treatments were administered via oral gavage once daily. After administration for 4 weeks, all mice were fasted 12 hours, and blood was collected from the retro-orbital sinus under ether anesthesia. […]
# Total RNA from liver tissue of mice was isolated with a Trizol Reagent (Molecular Research Center, Inc., Cincinnati, Ohio, USA) according to the manufacturer's instructions. The integrity of the extracted total RNA was examined by 2% agarose gel electrophoresis, and the RNA concentration was determined by the ultraviolet (UV) light absorbency at 260 nm and 280 nm (Spectrophotometer U-2800A, Hitachi). […]
# Levels of mRNA of target genes were quantified by semi-quantitative reverse transcription polymerase chain reaction (RT-PCR). […] PCR products were analyzed by 2% agarose gel and stained with ethidium bromide.
# [1] = test system: high-fat diet-fed C57BL/6J mouse; experiment: Blood glucose levels and biochemical parameters in HFD-fed mice; format: in vivo, C57BL/6J mice; conditions: for blood glucose levels: fasting, week 12, oral gavage once daily 4 weeks; for blood glucose levels / blood adiponectin levels / circulating free fatty acid (FFA) levels / circulating total cholesterol (TC) levels / circulating triglycerides (TG) levels / levels of blood insulin / levels of blood leptin: AnK 10, 20, 40, Feno 250, Metf 300 mg/kg/day; for blood adiponectin levels / circulating free fatty acid (FFA) levels / circulating total cholesterol (TC) levels / circulating triglycerides (TG) levels / levels of blood insulin / levels of blood leptin: oral gavage once daily 4 weeks
# Protocol: Animal studies were performed and approved under the guidelines of the Institutional Animal Care and Use Committee in Taiwan (12 Mar. 2015). […] After acclimatization for one week, all of the mice were randomly assigned into a control (CON) group and a high-fat diet (HFD) group. For the following 12 weeks, the CON group (n=9) received a control diet or a low-fat diet (Diet 12450B, Research Diets, Inc., New Brunswick, N.J., USA), while the HFD group (n=54) received a high-fat diet (Diet 12451, Research Diets, New Brunswick, N.J., USA). […] After HFD feeding for 8 weeks, the HFD group was randomly subdivided into six groups (n=9 per group) receiving different treatments and fed on HFD. […] The HF+AnK1, HF+AnK2, and HF+AnK3 groups are collectively termed AnK-treated HFD groups in the following examples. The CON mice were administered vehicle. All treatments were administered via oral gavage once daily. After administration for 4 weeks, all mice were fasted 12 hours, and blood was collected from the retro-orbital sinus under ether anesthesia. At the end of the experiment, the mice were sacrificed via carbon dioxide inhalation. Liver, adipose tissue, and skeletal muscle were collected and immediately stored at −80° C. for target gene analysis. A portion of the blood samples obtained from the retro-orbital sinus of fasted mice were immediately used to measure blood glucose levels using Sidekick glucose analyzer (YSI 1500, YSI Incorporated, Yellow Springs, USA) according to the glucose oxidase method. Heparin (30 units/mL, Sigma) was added into other portions of the blood samples. Plasma samples for the following analysis were prepared from these blood samples via centrifugation at 1600 g for 15 minutes at 4° C., followed by plasma separation within 30 minutes. Blood levels of triglycerides (TG), total cholesterol (TC), and free fatty acids (FFA) were determined using commercial assay kits in accordance with manufacturer's directions (Triglycerides-E test, Cholesterol-E test and FFA-C test, Wako Pure Chemical, Osaka, Japan). Blood levels of insulin, leptin, and adiponectin were measured by enzyme-linked immunosorbent assay (mouse insulin ELISA kit, Mercodia, Uppsala, Sweden; mouse leptin ELISA kit, Morinaga, Yokohama, Japan; mouse adiponectin ELISA kit, Crystal Chem International, Downers Grove, Ill., USA).
SMILES,mRNA levels of SREBP2 (SREBP2),glucose-lowering effect compared with metformin ([1]; AnK 40 mg/kg body weight/day vs metformin 300 mg/kg/day),"lowering of blood glucose levels ([1]; AnK at 10, 20, and 40 mg/kg body weight/day, vs HF group)","decrease of circulating TG ([1]; AnK treatment (10, 20, 40 mg/kg/day), vs HF group)",TG-lowering effect compared with fenofibrate ([1]; AnK treatment vs fenofibrate 250 mg/kg/day),blood glucose levels ([1]; vs HF group),blood adiponectin levels ([1]; vs HF group),circulating free fatty acid (FFA) levels ([1]; vs HF group),circulating total cholesterol (TC) levels ([1]; vs HF group),circulating triglycerides (TG) levels ([1]; vs HF group),levels of blood insulin ([1]; vs HF group),levels of blood leptin ([1]; vs HF group)
"C=C(CC[C@@H](C)[C@H]1CC[C@H]2C3=C(C(=O)C[C@]12C)[C@@]1(C)CC[C@@H](O)[C@](C)(O)[C@@H]1C[C@@H]3O)C(C)C(=O)O (stereo partly drawn) [AnK, 3α,4β,7β-trihydroxy-4α-methylergosta-8,24(28)-dien-11-on-25S-26-oic acid]",significantly decreased,comparable to that of metformin,26.8-36.0%,28.5-32.8%,comparable to the TG-lowering effect of fenofibrate,significantly reduced,markedly enhanced,decreased,decreased,decreased,effectively reduced,effectively reduced
"CN(C)C(=N)N=C(N)N [Metf, metformin, reference compound]",significantly decreased,,,,,significantly reduced,markedly enhanced,decreased,decreased,decreased,effectively reduced,effectively reduced
